The text below walks through data of patent publication US20170002055A1, “Novel peptides and combination of peptides for use in immunotherapy against ovarian cancer and other cancers” (immatics biotechnologies GmbH, priority 2015, published 2017).

The target in assay [1] is HLA-A*02:01 (Homo sapiens, UniProt P04439, D140Y/D185E/D98H/E176V/E277Q/G131W/G231S/I119V/I121R/I166T/I218V/L300P/L318F/N151K/N90K/P208A/P217A/Q86G/Q94H/R138H/R169H/T345S). The assay is described as follows: MHC binding assay (UV-ligand exchange, β2m ELISA, peptide exchange yield). Conditions: MHC class I binding score; binding to HLA-A*02:01 ranged by peptide exchange yield (UV-ligand exchange, β2m ELISA). A digest of the protocol:
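Peptide–HLA-A*02:01 complexes were formed by UV-mediated exchange of a UV-cleavable ligand for the test peptide. Exchange yield was measured by capturing complexes on streptavidin, detecting with HRP anti-β2m antibody (1 h, 37°C) and reading TMB absorbance at 450 nm.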
Background: In an ELISA, binding on a coated surface is turned into a signal by an enzyme label.

Assay [2] deals with CD8+ T cells. In words: In vitro immunogenicity: priming of CD8+ T cells with artificial APCs loaded with peptide/MHC and anti-CD28, multimer readout. The assay is classed as cell-based, human. Conditions: for Wells positive [%]: HLA-A*02 restricted peptides, percentage of positive wells. The text has this:
In order to obtain information regarding the immunogenicity of the TUMAPs of the present invention, the inventors performed investigations using an in vitro T-cell priming assay based on repeated stimulations of CD8+ T cells with artificial antigen presenting cells (aAPCs) loaded with peptide/MHC complexes and anti-CD28 antibody.
In order to perform in vitro stimulations by artificial antigen presenting cells loaded with peptide-MHC complex (pMHC) and anti-CD28 antibody, the inventors first isolated CD8+ T cells from fresh HLA-A*02 leukapheresis products via positive selection using CD8 microbeads (Miltenyi Biotec, Bergisch-Gladbach, Germany) of healthy donors obtained from the University clinics Mannheim, Germany, after informed consent.
PBMCs and isolated CD8+ lymphocytes were incubated in T-cell medium (TCM) until use consisting of RPMI-Glutamax (Invitrogen, Karlsruhe, Germany) supplemented with 10% heat inactivated human AB serum (PAN-Biotech, Aidenbach, Germany), 100 U/ml Penicillin/100 μg/ml Streptomycin (Cambrex, Cologne, Germany), 1 mM sodium pyruvate (CC Pro, Oberdorla, Germany), 20 μg/ml Gentamycin (Cambrex). 2.5 ng/ml IL-7 (PromoCell, Heidelberg, Germany) and 10 U/ml IL-2 (Novartis Pharma, Nürnberg, Germany) were also added to the TCM at this step.
Generation of pMHC/anti-CD28 coated beads, T-cell stimulations and readout was performed in a highly defined in vitro system using four different pMHC molecules per stimulation condition and 8 different pMHC molecules per readout condition.
The purified co-stimulatory mouse IgG2a anti human CD28 Ab 9.3 (Jung et al., 1987) was chemically biotinylated using Sulfo-N-hydroxysuccinimidobiotin as recommended by the manufacturer (Perbio, Bonn, Germany). Beads used were 5.6 μm diameter streptavidin coated polystyrene particles (Bangs Laboratories, Illinois, USA).
pMHC used for positive and negative control stimulations were A*0201/MLA-001 (peptide […] (SEQ ID NO. 664) from modified Melan-A/MART-1) and A*0201/DDX5-001 ([…] from DDX5, SEQ ID NO. 665), respectively.
800.000 beads/200 μl were coated in 96-well plates in the presence of 4×12.5 ng different biotin-pMHC, washed and 600 ng biotin anti-CD28 were added subsequently in a volume of 200 μl. Stimulations were initiated in 96-well plates by co-incubating […] CD8+ T cells with 2×10^5 washed coated beads in 200 μl TCM supplemented with 5 ng/ml IL-12 (PromoCell) for 3 days at 37° C. Half of the medium was then exchanged by fresh TCM supplemented with 80 U/ml IL-2 and incubating was continued for 4 days at 37° C. This stimulation cycle was performed for a total of three times. For the pMHC multimer readout using 8 different pMHC molecules per condition, a two-dimensional combinatorial coding approach was used as previously described (Andersen et al., 2012) with minor modifications encompassing coupling to 5 different fluorochromes. Finally, multimeric analyses were performed by staining the cells with Live/dead near IR dye (Invitrogen, Karlsruhe, Germany), CD8-FITC antibody clone SK1 (BD, Heidelberg, Germany) and fluorescent pMHC multimers. For analysis, a BD LSRII SORP cytometer equipped with appropriate lasers and filters was used. Peptide specific cells were calculated as percentage of total CD8+ cells. Evaluation of multimeric analysis was done using the FlowJo software (Tree Star, Oregon, USA). In vitro priming of specific multimer+ CD8+ lymphocytes was detected by comparing to negative control stimulations.

For “283 (ALYIGDGYVIHLA; listed as Homo sapiens) [compound 283]”, the Peptide exchange entry in assay [1] was ““+++” (≧50 = +++)”. Besides, in assay [2] (HLA-A*02, percentage of positive donors), the donors result is given as “+++ (50%-69 = +++)”. Moreover, the wells result in assay [2] (HLA-A*02, percentage of positive wells) was “+ (<20% = +)”.

As to “319 (SLEPQIQPV; listed as Homo sapiens) [compound 319]”, the Peptide exchange entry in assay [1] is listed as ““++” (≧20% = ++)”. In addition, the “Wells positive [%]” value in assay [2] is given as ““+” (<20% = +)”.

On to “384 (ILFANPNIFV; listed as Homo sapiens) [compound 384]”, for which, in assay [1], the Peptide exchange entry is listed as ““+++” (≧50 = +++)”. Further, the “Wells positive [%]” value in assay [2] was ““+” (<20% = +)”.

For the substance “395 (ALALGGIAVV; listed as Homo sapiens) [compound 395]”, in assay [1], the Peptide exchange entry is ““++++” (≧75% = ++++)”. Besides, the “Wells positive [%]” value in assay [2] is given as ““+++” (50%-69% = +++)”.

As to “443 (GLWEIENNPTV; listed as Homo sapiens) [compound 443]”, the Peptide exchange entry in assay [1] is reported as ““+++” (≧50 = +++)”. The “Wells positive [%]” value in assay [2] was ““+” (<20% = +)”.

In the case of “446 (QLIPALAKV; listed as Homo sapiens) [compound 446]”, in assay [1], the Peptide exchange entry is ““+++” (≧50 = +++)”. The “Wells positive [%]” value in assay [2] is on record as ““++” (20%-49% = ++)”.

In the case of “454 (KLPPPPPQA; listed as Homo sapiens) [compound 454]”, in assay [1], the Peptide exchange result is ““+++” (≧50 = +++)”. Moreover, the “Wells positive [%]” value in assay [2] is ““++” (20%-49% = ++)”.

For the substance “460 (AMLEKNYKL; listed as Homo sapiens) [compound 460]”, the Peptide exchange result in assay [1] was ““++++” (≧75% = ++++)”. Further, in assay [2], the “Wells positive [%]” value is given as ““+” (<20% = +)”.

Take “463 (SLVESHLSDQLTL; listed as Homo sapiens) [compound 463]”: the Peptide exchange entry in assay [1] is ““+++” (≧50 = +++)”. Besides, the “Wells positive [%]” value in assay [2] is listed as ““++” (20%-49% = ++)”.

Consider “489 (KMWEELPEVV; listed as Homo sapiens) [compound 489]”, for which, in assay [1], the Peptide exchange entry is given as ““+++” (≧50 = +++)”. The “Wells positive [%]” value in assay [2] is on record as ““+” (<20% = +)”.

Take “499 (KIFDIDEAEEGV; listed as Homo sapiens) [compound 499]”: in assay [1], the Peptide exchange entry was ““++” (≧20% = ++)”. In addition, the “Wells positive [%]” value in assay [2] was ““+” (<20% = +)”.

Take “511 (FLDPYCSASV; listed as Homo sapiens) [compound 511]”: in assay [1], the Peptide exchange result is reported as ““++” (≧20% = ++)”. For the same substance, the “Wells positive [%]” value in assay [2] is recorded as ““+” (<20% = +)”.

On to “518 (KLNAEVACV; listed as Homo sapiens) [compound 518]”, for which the Peptide exchange entry in assay [1] is given as ““+++” (≧50 = +++)”. Besides, in assay [2], the “Wells positive [%]” value is ““++” (20%-49% = ++)”.

Regarding “603 (FLIEPEHVNTV; listed as Homo sapiens) [compound 603]”, the Peptide exchange entry in assay [1] is on record as ““++” (≧20% = ++)”. For the same substance, the “Wells positive [%]” value in assay [2] was ““+” (<20% = +)”.
